pIC50: −log10 of the molar value. Where a name gives a salt, the structure may show the parent alone. Read-outs that look alike come from different tables or passages of the source.

The record followed here is patent US20060014740A1 (priority 2003, published 2006).

The subject of data set [1] is SKOv-3 human ovarian cancer cell line. Kind of data set: SRB cytotoxicity assay, SKOv-3. Type of data set: cell-based. The conditions noted are these: Homo sapiens, SK-OV-3; Table 8. On the procedure: (§1) For in vitro cytotoxicity screening, 1000 to 5000 cells were plated into each well of 96-well plates depending on growth rate, and exposed to different concentrations of a test compound for 96 h in three to five replicates. All the compounds were dissolved in dimethyl sulfoxide at 5 to 20 mM, and diluted to desired concentrations in complete culture medium. Cell numbers at the end of the drug treatment were measured by the SRB assay (Gududuru et al., “Synthesis and Biological Evaluation of Novel Cytotoxic Phospholipids for Prostate Cancer,” Bioorg. Med. Chem. Lett. 14:4919-4923 (2004); Rubinstein et at., “Comparison of in vitro Anticancer-Drug-Screening Data Generated with a Tetrazolium Assay Versus a Protein Assay Against a Diverse Panel of Human Tumor Cell Lines,” J. Naatl, Cancer Inst. 82:1113-1118 (1990), each of which is hereby incorporated by reference in its entirety). Briefly, the cells were fixed with 10% of trichloroacetic acid, stained with 0.4% SRB, and the absorbances at 540 nm was measured using a plate reader (DYNEX Technologies, Chantilly, Va.).
(§2) In vitro cytotoxicity assay was performed by the same sulforhodamine B (SRB) assay (described above). The compounds shown in Table 8 below where tested for activity against the breast cancer and ovarian cancer cell lines.
Background: In SRB staining, fixed cells bind dye roughly in proportion to their protein.

Data set [2] concerns DU-145 human prostate cancer cells. Kind of data set: SRB cytotoxicity assay, DU-145. Type of data set: cell-based. As to conditions: 96 h. In a few lines:
(§3)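 96 h compound exposure, 0–100 μM; 1000–5000 cells/well; 3–5 replicates. TCA fix (10%), 0.4% SRB stain, A540. Cell number expressed as % of untreated control.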

For data set [3], the system named is TSU-Pr1 human prostate cancer cells. Kind of data set: SRB cytotoxicity assay, TSU-Pr1. As to conditions: 96 h. Type of data set: cell-based. In a few lines:
as §3

Data set [4] has as its system human breast cancer cell line (MCF-7). Kind of data set: SRB cytotoxicity assay, MCF-7. Format: cell-based. As to conditions: Homo sapiens, MCF7, read-out: IC50 MCF-7. In a few lines:
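Cells plated at 1000–5000 per well by growth rate and exposed to compound (0 to 100 μM) for 96 h, three to five replicates. Cell number read by sulforhodamine B: TCA fixation, 0.4% SRB staining, absorbance at 540 nm.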

For data set [5], the system named is PPC-1 human prostate cancer cells. The data set is described as follows: SRB cytotoxicity assay, PPC-1. Type of data set: cell-based. In a few lines:
as §3

The subject of data set [6] is OVCAR-3 human ovarian cancer cell line. The data set is described as follows: SRB cytotoxicity assay, OVCAR-3. Type of data set: cell-based. As to conditions: Homo sapiens, OVCAR-3; Table 8. On the procedure: as §1, §2
Data set [7] relates to RH7777 rat hepatoma cells. Kind of data set: SRB cytotoxicity assay, RH7777 control cell line. Type of data set: cell-based. As to conditions: for pIC50: read-out: IC50 RH7777. The gist of the method: as §3
The subject of data set [8] is CaOv-3 human ovarian cancer cell line. The data set is described as follows: SRB cytotoxicity assay, CaOv-3. Format: cell-based. As to conditions: Homo sapiens, Caov-3; Table 8. On the procedure:
as §1, §2

The subject of data set [9] is PC-3 human prostate cancer cells. Kind of data set: SRB cytotoxicity assay, PC-3. Type of data set: cell-based. The conditions noted are these: 96 h, read-out: IC50 PC-3. In a few lines:
as §3

The subject of data set [10] is LNCaP human prostate cancer cells. Kind of data set: SRB cytotoxicity assay, LNCaP. The conditions noted are these: 96 h; for pIC50: read-out: IC50 LNCaP. Format: cell-based. In a few lines: as §3
The subject of data set [11] is five human prostate cancer cell lines (DU-145, PC-3, LNCaP, PPC-1, TSU-Pr1). The data set is described as follows: SRB cytotoxicity assay, statements over several cell lines. Format: cell-based. As to conditions: both prostate and RH7777 cells; read-out: No activity below (concentration). On the procedure: as §1
The antiproliferative activity of all the synthesized compounds was evaluated against five human prostate cancer cell lines and in RH7777 cells (negative control) using the sulforhodamine B (SRB) assay (see description in Example 5 above). […]

Data set [12] has as its system CHO cells (CHO-1, CHO-K1). The data set is described as follows: SRB cytotoxicity assay, CHO. The conditions noted are these: Table 9; negative control cell line; 96 h. Format: cell-based. On the procedure: as §1, §2
Cells were exposed to a wide range of concentrations (0 to 100 μM) of the particular compound for 96 h in 96 well plates. Cells were fixed with 10% trichloroacetic acid, washed five times with water. The plates were air dried overnight and fixed cells were stained with SRB solution. The cellular protein-bound SRB was measured at 540 nm using a plate reader. Cell numbers at the end of the treatment were measured.
Cells were exposed to a wide range of concentrations (0 to 100 μM) of the particular compound for 96 h in 96-well plates. Cells were fixed with 10% trichloroacetic acid, washed five times with water. The plates were air dried overnight and fixed cells were stained with SRB solution. The cellular protein-bound SRB was measured at 540 nm using a plate reader. Cell numbers at the end of the treatment were calculated as a percentage of untreated control.

Where [13] appears, read: Homo sapiens, DU-145, read-out: IC50 DU-145, Example 10 table.
Where [14] appears, read: Homo sapiens, TSU-Pr1, Example 10 table, read-out: IC50 TSU-Pr1.
Setting [15] is: Table 8, breast cancer cell line.
Setting [16] is: Homo sapiens, PPC-1, Example 10 table, 96 h, read-out: IC50 PPC-1.
[17] abbreviates: Rattus norvegicus, RH7777, Example 10 table, 0 to 100 μM for 96 h.
The mark [18] stands for this setting: Homo sapiens, LNCaP, Example 10 table.
Setting [19] is: Homo sapiens, DU-145, read-out: IC50 DU-145, Table 4.
Where [20] appears, read: Homo sapiens, TSU-Pr1, Table 4, read-out: IC50 TSU-Pr1.
Setting [21] is: Homo sapiens, PPC-1, Table 4, 96 h, read-out: IC50 PPC-1.
Setting [22] is: Rattus norvegicus, RH7777, Table 4, control cell line, 96 h.
Setting [23] is: Table 9, 96 h, read-out: IC50 PPC-1.
The mark [24] stands for this setting: Table 9, negative control cell line, 96 h.
Where [25] appears, read: Homo sapiens, DU-145, read-out: IC50 DU-145, Table 3.
The mark [26] stands for this setting: Homo sapiens, TSU-Pr1, Table 3, read-out: IC50 TSU-Pr1.
Where [27] appears, read: Rattus norvegicus, RH7777, Table 3, control cell line, 96 h.

`CCCCCCCNC(=O)[C@@H]1CSC(c2ccccc2)N1` (mixture of isomers) [Compound 3-HCI, (2RS, 4R)-2-Phenylthiazolidine-4-carboxylic acid heptylamide Hydrochloride]: the pIC50 is 4.32 in data set [1]; 4.35 in [2] (setting [13]); 4.55 in data set [3] (setting [14]); 4.30 in data set [4] (Example 10 table, 96 h); 4.30 in data set [4] (setting [15]); 4.46 in [5] (setting [16]). Besides, the pIC50 in data set [6] was 4.47; in data set [7] (setting [17]), 4.28; in [8], 4.72; in data set [9] (Homo sapiens, Example 10 table), 4.41; in [10] (setting [18]), 4.91.
Regarding `CCCCCCCCCCCCCCCCCCNC(=O)c1csc(-c2ccccc2)n1` [Compound 34, 2-phenylthiazole-4-carboxylic acid octadecylamide], the pIC50 in [2] (setting [19]), in data set [3] (setting [20]), in [4] (setting [15]), in [5] (setting [21]), in data set [11] and in data set [7] (setting [22]) was less than 4.70 in each case. Moreover, the pIC50 in data set [9] (Homo sapiens, Table 4) was less than 4.70; in data set [10] (Homo sapiens, LNCaP, Table 4) it was less than 4.70.
Regarding `CCCCCCCCNC(=O)C(CO)NC(=O)CCCCCCC` (centres unmarked) [315d], the pIC50 was less than 4.00 in data set [2] (read-out: IC50 DU-145, Table 9); 4.03 in data set [3] (Table 9, read-out: IC50 TSU); less than 4.00 in [12]; 4.09 in data set [5] (setting [23]); 4.09 in data set [9] (Table 9); less than 4.00 in data set [10] (Table 9).
Regarding `CCCCCCCCC=CCCCCCCCCNC(=O)C(N)CO` (centres unmarked) [compound 309], the pIC50 in data set [2] (read-out: IC50 DU-145, Table 9) was 5.16; in data set [3] (Table 9, read-out: IC50 TSU), 5.26; in [12], 5.28; in [5] (setting [23]), 5.29; in data set [7] (setting [24]), 5.17; in [9] (Table 9), 5.23. Also, the pIC50 in data set [10] (Table 9) was 5.18.
In the case of `CCCCCCCCCCCCCCCCCCNC(=O)[C@H]1CSC(c2ccccc2)N1` (stereo partly drawn) [5-HCI (S), (4S)-N-octadecyl-2-phenylthiazolidine-4-carboxamide], the pIC50 in data set [1] was 4.74; in data set [2] (setting [13]) it was 5.15; in data set [3] (setting [14]) it was approximately 5.00; in data set [4] (Example 10 table, 96 h) it was 5.13; in data set [4] (setting [15]) it was 5.13; in data set [5] (setting [16]), 5.40. Besides, the pIC50 was 5.28 in data set [6]; 4.72 in data set [7] (setting [17]); 4.74 in data set [8]; less than 5.00 in data set [9] (Homo sapiens, Example 10 table); 5.20 in data set [10] (setting [18]).
Turning to `CCCCCCCCCCCCCCCCCCNC(=O)[C@@H]1CSC(c2ccc(F)cc2)N1` (mixture of isomers) [Compound 19, (2RS, 4R)-2-(4-Fluoro-phenyl)-thiazolidine-4-carboxylic acid octadecylamide], the melting point (in general, the temperature, or range, at which the solid turns liquid) is 65 °C. The same compound gave a pIC50 in [1] of 5.38. Moreover, the pIC50 in data set [2] (setting [19]) was 5.24. The pIC50 in data set [3] (setting [20]) is 5.27. Moreover, the pIC50 in data set [4] (setting [15]) was 5.06. Besides, the pIC50 in data set [5] (setting [21]) is 5.68. In addition, the pIC50 in data set [6] is 5.64. The pIC50 in data set [7] (setting [22]) is 4.76. Besides, the pIC50 in data set [8] was 5.26. Moreover, the pIC50 in data set [10] (Homo sapiens, LNCaP, Table 4) was 5.72.
As for `CCCCCCCCCCCCCCCCCCNC[C@@H](N)CO` [compound 317], the pIC50 in data set [2] (read-out: IC50 DU-145, Table 9) is 5.39; in data set [3] (Table 9, read-out: IC50 TSU) it was 5.66; in data set [12], 5.66; in data set [5] (setting [23]), 5.72; in data set [7] (setting [24]) it was 5.54; in [9] (Table 9) it was 5.59. Moreover, in data set [10] (Table 9), the pIC50 was 5.29.
In the case of `CCCCCCCCC=CCCCCCCCC(=O)NCCOP(=O)(O)O` [compound 320], the pIC50 in [2] (read-out: IC50 DU-145, Table 9) is less than 4.30; in [3] (Table 9, read-out: IC50 TSU) it was less than 4.30; in data set [12], less than 4.30; in data set [7] (setting [24]), less than 4.30; in data set [9] (Table 9) it was less than 4.30. Besides, the “IC50 LNCaP” value in [10] (Table 9) is reported as “Not Active”.
Take `CCCCCCCCCCCCCCCCCCNC(=O)[C@@H]1CSC(c2cc(OC)c(OC)c(OC)c2)N1` (mixture of isomers) [Compound 17-HCI, (2RS, 4R)-2-(3,4,5-Trimethoxy-phenyl)-thiazolidine-4-carboxylic acid octadecylamide Hydrochloride]: the pIC50 in data set [1] is 5.57; in data set [2] (setting [25]) it was 5.41; in [3] (setting [26]), 5.62; in data set [6], 5.85; in data set [7] (setting [27]) it was 4.94; in data set [8], 5.36. Further, the pIC50 in data set [9] (Homo sapiens, Table 3) was 5.40; in data set [10] (Homo sapiens, LNCaP, Table 3), 6.09.
Regarding `Cl.O=C(O)[C@@H]1CSC(c2ccoc2)N1` (mixture of isomers) [Compound 12-HCI, (2RS, 4R)-2-Furan-3-yl-thiazolidine-4-carboxylic acid Hydrochloride], the pIC50 in data set [1] was 5.27; in [2] (setting [25]), 5.18; in data set [3] (setting [26]) it was 5.38; in data set [5] (Homo sapiens, PPC-1, Table 3, 96 h, read-out: IC50 PPC-1) it was 5.96; in data set [6], 5.64; in [7] (setting [27]), 4.98. The pIC50 in [8] is 5.11; in [9] (Homo sapiens, Table 3) it was 5.09; in data set [10] (Homo sapiens, LNCaP, Table 3), 5.77. Besides, the “Fold less selective against RH7777 cell line than compound 5” value in data set [7] was 3 fold.
Regarding `CCCCCCCCCCCCCCCCCCNC(=O)[C@@H]1CSC(c2ccc(NC(C)=O)cc2)N1.Cl` (mixture of isomers) [Compound 18-HCI, (2RS, 4R)-2-(4-Acetylamino-phenyl)-thiazolidine-4-carboxylic acid octadecylamide Hydrochloride], the pIC50 was 5.59 in data set [1]; 5.51 in data set [2] (setting [19]); 6.03 in data set [3] (setting [20]); 6.26 in data set [5] (setting [21]); 6.26 in [5] (Homo sapiens, PPC-1, read-out: IC50 in PPC-1 cells); 5.70 in data set [6]. For the same compound, the pIC50 in [7] (setting [22]) is 4.68; in data set [8], 5.31; in data set [9] (Homo sapiens, Table 4), 5.25; in [10] (Homo sapiens, LNCaP, Table 4), 5.89. Besides, the “Selectivity in PPC-1 cells compared to RH7777 cells” value in [5] was found to be 38 fold.
